Results reported in article PMC5218480 (PLoS ONE, 2017).

System: MV-4-11 cells
Assay: Gene expression microarray analysis (Affymetrix PrimeView) and GSEA
Assay type: cell-based, human
Set-up: RFU PODN (11730768_x_at) / Fold change /veh PODN (11730768_x_at) / RFU LINC00158 (11744669_a_at) / Fold change /veh LINC00158 (11744669_a_at) / RFU DUSP10 (11751237_a_at) / Fold change /veh DUSP10 (11751237_a_at) / RFU ID3 (11757404_x_at) / Fold change /veh ID3 (11757404_x_at) / RFU PLEKHG5 (11737974_s_at) / Fold change /veh PLEKHG5 (11737974_s_at) / RFU LRRC4B (11730491_at) / Fold change /veh LRRC4B (11730491_at) / RFU GIMAP4 (11747438_a_at) / Fold change /veh GIMAP4 (11747438_a_at) / RFU KRT8 (11758183_x_at) / Fold change /veh KRT8 (11758183_x_at) / RFU CNN1 (11734310_a_at) / Fold change /veh CNN1 (11734310_a_at) / RFU VPS37D (11726825_at) / Fold change /veh VPS37D (11726825_at) / RFU C10orf10 (11716522_x_at) / Fold change /veh C10orf10 (11716522_x_at) / RFU KIR2DL2 /// KIR2DL4 /// KIR2DL5A /// KIR2DL5B /// KIR2DS1 /// KIR2DS2 /// KIR2DS3 /// KIR2DS4 /// KIR3DL3 /// KIR3DL3 /// KIR3DS1 (11738374_at) / Fold change /veh KIR2DL2 /// KIR2DL4 /// KIR2DL5A /// KIR2DL5B /// KIR2DS1 /// KIR2DS2 /// KIR2DS3 /// KIR2DS4 /// KIR3DL3 /// KIR3DL3 /// KIR3DS1 (11738374_at) / RFU C1QL1 (11718748_at) / Fold change /veh C1QL1 (11718748_at) / RFU TMPRSS4 (11747572_a_at) / Fold change /veh TMPRSS4 (11747572_a_at) / RFU HAMP (11756126_x_at) / Fold change /veh HAMP (11756126_x_at) / RFU RNFT2 (11725882_a_at) / Fold change /veh RNFT2 (11725882_a_at) / RFU NR4A2 (11747474_a_at) / Fold change /veh NR4A2 (11747474_a_at) / RFU ABCC12 (11746883_a_at) / Fold change /veh ABCC12 (11746883_a_at) / RFU TMEM136 (11760407_x_at) / Fold change /veh TMEM136 (11760407_x_at) / RFU CLDN22 /// WWC2 (11732394_at) / Fold change /veh CLDN22 /// WWC2 (11732394_at) / RFU HLA-DPB1 (11760878_x_at) / Fold change /veh HLA-DPB1 (11760878_x_at) / RFU SPINT1 (11716480_a_at) / Fold change /veh SPINT1 (11716480_a_at) / RFU GAP43 (11754022_s_at) / Fold change /veh GAP43 (11754022_s_at) / RFU A4GNT (11735810_at) / Fold change /veh A4GNT (11735810_at) / RFU PRB3 (11715151_x_at) / Fold change /veh PRB3 (11715151_x_at) / RFU TUBB4B (11761932_at) / Fold change /veh TUBB4B (11761932_at) / RFU CAPN14 (11732068_a_at) / Fold change /veh CAPN14 (11732068_a_at) / RFU TMCC2 (11721928_a_at) / Fold change /veh TMCC2 (11721928_a_at) / RFU IRGQ (11745062_a_at) / Fold change /veh IRGQ (11745062_a_at) / RFU FAM174B (11720279_a_at) / Fold change /veh FAM174B (11720279_a_at) / RFU TMPRSS4 (11748680_a_at) / Fold change /veh TMPRSS4 (11748680_a_at) / RFU FAM212B (11763350_a_at) / Fold change /veh FAM212B (11763350_a_at) / RFU PLEKHG5 (11743358_a_at) / Fold change /veh PLEKHG5 (11743358_a_at) / RFU ZSCAN30 (11745921_a_at) / Fold change /veh ZSCAN30 (11745921_a_at) / RFU CMKLR1 (11741424_a_at) / Fold change /veh CMKLR1 (11741424_a_at) / RFU LOC101060620 /// MAPK8IP1 (11723275_at) / Fold change /veh LOC101060620 /// MAPK8IP1 (11723275_at) / RFU SPTSSB (11747773_x_at) / Fold change /veh SPTSSB (11747773_x_at) / RFU PRSS12 (11739890_at) / Fold change /veh PRSS12 (11739890_at) / RFU BIN1 (11741810_x_at) / Fold change /veh BIN1 (11741810_x_at) / RFU WNT11 (11732464_a_at) / Fold change /veh WNT11 (11732464_a_at) / RFU C10orf10 (11716521_a_at) / Fold change /veh C10orf10 (11716521_a_at) / RFU C5orf56 (11738089_at) / Fold change /veh C5orf56 (11738089_at) / RFU CYB561 (11721691_x_at) / Fold change /veh CYB561 (11721691_x_at) / RFU ANKRD19P (11752326_a_at) / Fold change /veh ANKRD19P (11752326_a_at) / RFU OR2T12 /// OR2T33 /// OR2T8 (11738714_s_at) / Fold change /veh OR2T12 /// OR2T33 /// OR2T8 (11738714_s_at) / RFU VCAN (11748164_a_at) / Fold change /veh VCAN (11748164_a_at) / RFU JSRP1 (11732532_at) / Fold change /veh JSRP1 (11732532_at) / RFU KRTAP10-11 (11738290_x_at) / Fold change /veh KRTAP10-11 (11738290_x_at) / RFU MYO3A (11730013_a_at) / Fold change /veh MYO3A (11730013_a_at) / RFU EBF3 (11725865_a_at) / Fold change /veh EBF3 (11725865_a_at) / RFU CAMK2N1 (11719241_x_at) / Fold change /veh CAMK2N1 (11719241_x_at) / RFU C5orf56 (11738088_a_at) / Fold change /veh C5orf56 (11738088_a_at) / RFU OLFML3 (11715873_a_at) / Fold change /veh OLFML3 (11715873_a_at) / RFU LOC100653217 /// NTM (11731650_a_at) / Fold change /veh LOC100653217 /// NTM (11731650_a_at) / RFU MAPK11 (11762145_a_at) / Fold change /veh MAPK11 (11762145_a_at) / RFU FIZ1 (11724087_x_at) / Fold change /veh FIZ1 (11724087_x_at) / RFU OASL (11726364_x_at) / Fold change /veh OASL (11726364_x_at) / RFU SOX15 (11748057_x_at) / Fold change /veh SOX15 (11748057_x_at) / RFU CD79A (11719716_a_at) / Fold change /veh CD79A (11719716_a_at) / RFU HIST1H1D (11736915_at) / Fold change /veh HIST1H1D (11736915_at) / RFU CASKIN2 (11723855_a_at) / Fold change /veh CASKIN2 (11723855_a_at) / RFU LOC730098 (11760151_x_at) / Fold change /veh LOC730098 (11760151_x_at) / RFU OR4N2 (11742367_at) / Fold change /veh OR4N2 (11742367_at) / RFU PRRT2 (11749266_a_at) / Fold change /veh PRRT2 (11749266_a_at) / RFU SNX32 (11753110_a_at) / Fold change /veh SNX32 (11753110_a_at) / RFU CDHR5 (11726645_a_at) / Fold change /veh CDHR5 (11726645_a_at) / RFU RCAN1 (11760418_a_at) / Fold change /veh RCAN1 (11760418_a_at) / RFU FAM167A (11723789_a_at) / Fold change /veh FAM167A (11723789_a_at) / RFU FAM26E (11764081_at) / Fold change /veh FAM26E (11764081_at) / RFU ISYNA1 (11749810_s_at) / Fold change /veh ISYNA1 (11749810_s_at) / RFU ACY1 (11761880_at) / Fold change /veh ACY1 (11761880_at) / RFU 11764098_at / Fold change /veh 11764098_at / RFU SAMD14 (11745864_x_at) / Fold change /veh SAMD14 (11745864_x_at) / RFU NPB (11741838_a_at) / Fold change /veh NPB (11741838_a_at) / RFU TMPRSS6 (11731388_a_at) / Fold change /veh TMPRSS6 (11731388_a_at) / RFU KRTAP10-2 (11738614_at) / Fold change /veh KRTAP10-2 (11738614_at) / RFU ARHGAP8 /// PRR5-ARHGAP8 (11727945_x_at) / Fold change /veh ARHGAP8 /// PRR5-ARHGAP8 (11727945_x_at) / RFU KRTAP5-7 /// NADSYN1 (11734609_at) / Fold change /veh KRTAP5-7 /// NADSYN1 (11734609_at) / RFU RASL12 (11751679_a_at) / Fold change /veh RASL12 (11751679_a_at) / RFU CDKN2B (11736163_a_at) / Fold change /veh CDKN2B (11736163_a_at) / RFU PRF1 (11729649_at) / Fold change /veh PRF1 (11729649_at) / RFU, ZNF638 /// ZNF638-IT1 / Fold change vs veh, ZNF638 /// ZNF638-IT1 / RFU, PANK3 / Fold change vs veh, PANK3 / RFU, SH3YL1 / Fold change vs veh, SH3YL1 / RFU, ZEB2 / Fold change vs veh, ZEB2 / RFU, NRIP1 / Fold change vs veh, NRIP1 / RFU, PTTG1IP / Fold change vs veh, PTTG1IP / RFU, CAPN2 / Fold change vs veh, CAPN2 / RFU, MED14 / Fold change vs veh, MED14 / RFU, SNORA58 / Fold change vs veh, SNORA58 / RFU, C1orf63 / Fold change vs veh, C1orf63 / RFU, LRRFIP1 / Fold change vs veh, LRRFIP1 / RFU, NDUFAF7 / Fold change vs veh, NDUFAF7 / RFU, SLC12A2 / Fold change vs veh, SLC12A2 / RFU, IBTK / Fold change vs veh, IBTK / RFU, ESF1 / Fold change vs veh, ESF1 / Fold change vs veh, TMEM50B / RFU, TAOK1 / Fold change vs veh, TAOK1 / RFU, ACBD3 / Fold change vs veh, ACBD3 / RFU, TMA16 / Fold change vs veh, TMA16 / RFU, RWDD3 / Fold change vs veh, RWDD3 / RFU, BCAT1 / Fold change vs veh, BCAT1 / RFU, EDEM3 / Fold change vs veh, EDEM3 / RFU, TMEM33 / Fold change vs veh, TMEM33 / RFU, WDR75 / Fold change vs veh, WDR75 / RFU, AHCTF1 / Fold change vs veh, AHCTF1 / RFU, TFRC / Fold change vs veh, TFRC / RFU, ZDHHC17 / Fold change vs veh, ZDHHC17 / RFU, NOM1 / Fold change vs veh, NOM1 / RFU, ARL8B / Fold change vs veh, ARL8B / RFU, ZBTB11 / Fold change vs veh, ZBTB11 / RFU, TAMM41 / Fold change vs veh, TAMM41 / RFU, KIAA1704 /// LOC100996395 / Fold change vs veh, KIAA1704 /// LOC100996395 / RFU, ING1 / Fold change vs veh, ING1 / RFU, TRMT61B / Fold change vs veh, TRMT61B / RFU, FUBP3 / Fold change vs veh, FUBP3 / RFU, TP53 / Fold change vs veh, TP53 / RFU, TNKS2 / Fold change vs veh, TNKS2 / RFU, ZFP14 / Fold change vs veh, ZFP14 / RFU, ACTR2 / Fold change vs veh, ACTR2 / RFU, PPP3R1 / Fold change vs veh, PPP3R1 / RFU, PIK3R1 / Fold change vs veh, PIK3R1 / RFU, HNRNPA1 / Fold change vs veh, HNRNPA1 / RFU, RNF170 / Fold change vs veh, RNF170 / RFU, ZNF28 / Fold change vs veh, ZNF28 / RFU, RNGTT / Fold change vs veh, RNGTT / RFU, OGT / Fold change vs veh, OGT / RFU, BRD1 / Fold change vs veh, BRD1 / RFU, MARS / Fold change vs veh, MARS / RFU, ZNF655 / Fold change vs veh, ZNF655 / RFU, FAHD1 / Fold change vs veh, FAHD1 / RFU, BDP1 / Fold change vs veh, BDP1 / RFU, LRRCC1 / Fold change vs veh, LRRCC1 / RFU, ARID1A / Fold change vs veh, ARID1A / RFU, ZNF146 / Fold change vs veh, ZNF146 / RFU, ZNF330 / Fold change vs veh, ZNF330 / RFU, GPN3 / Fold change vs veh, GPN3 / RFU, C9orf123 / Fold change vs veh, C9orf123 / RFU, N4BP2L2 / Fold change vs veh, N4BP2L2 / RFU, ARFIP1 / Fold change vs veh, ARFIP1 / RFU, FAM179B / Fold change vs veh, FAM179B / RFU, BCL10 / Fold change vs veh, BCL10 / RFU, UHRF1BP1L / Fold change vs veh, UHRF1BP1L / RFU, BET1 / Fold change vs veh, BET1 / RFU, CNOT2 / Fold change vs veh, CNOT2 / RFU, ZNF268 / Fold change vs veh, ZNF268 / Fold change vs veh, ZNF507 / RFU, DGCR2 / Fold change vs veh, DGCR2 / RFU, WDSUB1 / Fold change vs veh, WDSUB1 / Fold change vs veh, HSP90B1 /// MIR3652 / RFU, ADSS / Fold change vs veh, ADSS / RFU, GK / Fold change vs veh, GK / RFU, ZNF148 / Fold change vs veh, ZNF148 / RFU, TAF9 / Fold change vs veh, TAF9 / RFU, SLC1A5 / Fold change vs veh, SLC1A5 / RFU, SLMO2 / Fold change vs veh, SLMO2 / RFU, ABCC4 / Fold change vs veh, ABCC4 / RFU, LOC101060439 /// RAP1B / Fold change vs veh, LOC101060439 /// RAP1B / RFU, RFX7 / Fold change vs veh, RFX7 / RFU, GTPBP10 / Fold change vs veh, GTPBP10 / RFU, CNEP1R1 / Fold change vs veh, CNEP1R1 / RFU, BIVM-ERCC5 /// ERCC5 / Fold change vs veh, BIVM-ERCC5 /// ERCC5 / RFU, ILF3 / Fold change vs veh, ILF3 / RFU 11762660_at / Fold change /veh 11762660_at / RFU VCAN (11757783_s_at) / Fold change /veh VCAN (11757783_s_at) / RFU DDX43 (11728927_at) / Fold change /veh DDX43 (11728927_at) / RFU KRT8 (11758188_x_at) / Fold change /veh KRT8 (11758188_x_at) / RFU NKD1 (11759106_at) / Fold change /veh NKD1 (11759106_at) / RFU SRD5A1 (11742802_a_at) / Fold change /veh SRD5A1 (11742802_a_at) / RFU TPSAB1 /// TPSB2 (11721975_s_at) / Fold change /veh TPSAB1 /// TPSB2 (11721975_s_at) / RFU GSTM3 (11746129_a_at) / Fold change /veh GSTM3 (11746129_a_at) / RFU IL23R (11737362_x_at) / Fold change /veh IL23R (11737362_x_at) / RFU TMEM51 (11727254_a_at) / Fold change /veh TMEM51 (11727254_a_at) / RFU PIWIL2 (11732686_x_at) / Fold change /veh PIWIL2 (11732686_x_at) / RFU ORM1 (11744905_x_at) / Fold change /veh ORM1 (11744905_x_at) / RFU CCDC152 (11743942_at) / Fold change /veh CCDC152 (11743942_at) / RFU ECM1 (11717891_a_at) / Fold change /veh ECM1 (11717891_a_at) / RFU IL23R (11748794_a_at) / Fold change /veh IL23R (11748794_a_at) / RFU TNFAIP8L3 (11732012_x_at) / Fold change /veh TNFAIP8L3 (11732012_x_at) / RFU MBOAT4 (11741988_at) / Fold change /veh MBOAT4 (11741988_at) / RFU 11764193_at / Fold change /veh 11764193_at / RFU TMEM53 (11763286_at) / Fold change /veh TMEM53 (11763286_at) / RFU MAGEB2 (11727129_at) / Fold change /veh MAGEB2 (11727129_at) / RFU TMEM200A (11744735_a_at) / Fold change /veh TMEM200A (11744735_a_at) / RFU CCDC152 (11751479_a_at) / Fold change /veh CCDC152 (11751479_a_at) / RFU FAM211A (11726209_a_at) / Fold change /veh FAM211A (11726209_a_at) / RFU RGS16 (11746705_a_at) / Fold change /veh RGS16 (11746705_a_at) / RFU VCAN (11755009_s_at) / Fold change /veh VCAN (11755009_s_at) / RFU RHOB (11743442_s_at) / Fold change /veh RHOB (11743442_s_at) / RFU RGS16 (11720943_a_at) / Fold change /veh RGS16 (11720943_a_at) / RFU RGS16 (11720944_at) / Fold change /veh RGS16 (11720944_at) / RFU, VPS4B / Fold change vs veh, VPS4B / RFU, CREB1 / Fold change vs veh, CREB1 / RFU, DNAJC13 / Fold change vs veh, DNAJC13 / RFU, GNAQ / Fold change vs veh, GNAQ / RFU, CDK5R1 / Fold change vs veh, CDK5R1 / RFU, ZRANB3 / Fold change vs veh, ZRANB3 / RFU, CUL4A / Fold change vs veh, CUL4A / RFU, CCNY / Fold change vs veh, CCNY / RFU, UFL1 / Fold change vs veh, UFL1 / RFU, COG3 / Fold change vs veh, COG3 / RFU, DIAPH2 / Fold change vs veh, DIAPH2 / RFU, SKA2 / Fold change vs veh, SKA2 / RFU, AFF3 / Fold change vs veh, AFF3 / RFU, LMF1 / Fold change vs veh, LMF1 / RFU, IPO11 / Fold change vs veh, IPO11 / RFU, DFFB / Fold change vs veh, DFFB / RFU, FOXP1 / Fold change vs veh, FOXP1 / RFU, CARD8 / Fold change vs veh, CARD8 / RFU, STRN3 / Fold change vs veh, STRN3 / RFU, ADK / Fold change vs veh, ADK / RFU, RASSF2 / Fold change vs veh, RASSF2 / RFU, WIPF1 / Fold change vs veh, WIPF1 / RFU, LARP1B / Fold change vs veh, LARP1B / RFU, RASA1 / Fold change vs veh, RASA1 / RFU, RB1 / Fold change vs veh, RB1 / RFU, PPFIA1 / Fold change vs veh, PPFIA1 / RFU, MAT2A / Fold change vs veh, MAT2A / RFU, CCT5 / Fold change vs veh, CCT5 / RFU, WDR92 / Fold change vs veh, WDR92 / RFU, CUX1 / Fold change vs veh, CUX1 / RFU, TTC7A / Fold change vs veh, TTC7A / RFU, TMEM135 / Fold change vs veh, TMEM135 / RFU, DEPTOR / Fold change vs veh, DEPTOR / RFU, CPM / Fold change vs veh, CPM / RFU, DNAJB6 / Fold change vs veh, DNAJB6 / RFU, CACNA2D3 / Fold change vs veh, CACNA2D3 / RFU, DTX4 / Fold change vs veh, DTX4 / RFU, TFCP2 / Fold change vs veh, TFCP2 / RFU, GMCL1 /// GMCL1P1 / Fold change vs veh, GMCL1 /// GMCL1P1 / RFU, AEBP2 / Fold change vs veh, AEBP2 / RFU, SNHG1 /// SNORD22 /// SNORD25 /// SNORD26 /// SNORD27 /// SNORD28 /// SNORD29 /// SNORD31 / Fold change vs veh, SNHG1 /// SNORD22 /// SNORD25 /// SNORD26 /// SNORD27 /// SNORD28 /// SNORD29 /// SNORD31 / Fold change (Aza/veh), C12orf56 (ProbeSet 11735607_a_at) / Fold change (ACY-1035/veh), C12orf56 (ProbeSet 11735607_a_at) / Fold change (Aza/veh), FGFR1OP (ProbeSet 11751329_s_at) / Fold change (ACY-1035/veh), FGFR1OP (ProbeSet 11751329_s_at) / Fold change (Aza/veh), VPS36 (ProbeSet 11739960_a_at) / Fold change (ACY-1035/veh), VPS36 (ProbeSet 11739960_a_at) / RFU SYPL1 (11715823_x_at) / Fold change /veh SYPL1 (11715823_x_at) / RFU IGFBP7 (11715501_s_at) / Fold change /veh IGFBP7 (11715501_s_at) / RFU REEP3 (11722064_at) / Fold change /veh REEP3 (11722064_at) / RFU IGLL1 (11728026_x_at) / Fold change /veh IGLL1 (11728026_x_at): dose or concentration left out as unconfirmed
Settings: MV-4-11 cells, 48 hours

Q: For `Nc1ncn([C@@H]2O[C@H](CO)[C@@H](O)[C@H]2O)c(=O)n1` [azacitidine], which “Fold change /veh PRF1 (11729649_at)” value is on record?
A: 1.08
